Assay results reported in PMC8980233, “Differentiating the Neuropharmacological Properties of Nicotinic Acetylcholine Receptor-Activating Alkaloids” (Frontiers in Pharmacology, 2022).
“Also recorded” adds a separate entry of the source.

Key:
α3β4 nAChR [1] = target: T1, α3β4 nAChR (Homo sapiens, UniProt P30926+P32297); assay: Radioligand displacement binding assay
Procedure: All binding and functional assays for molecular target characterization were conducted by Eurofins Cerep SA (Celle-Lévescault, France) and Eurofins Panlabs Discovery Services Taiwan, Ltd. (New Taipei City, Taiwan) using their standard in vitro binding and functional assays (Supplementary Material S2). […] Negative values were considered to be an artifact arising from, for example, compounds interfering with the assay readout.
The radioligand displacement binding assays employed the gold standard filtration method using membrane preparations from stable cell lines (HEK-293 or CHO cells) expressing human or rodent target proteins to determine the interaction of the compounds with specific receptors, channels, and transporters. For this purpose, the competitive binding of test compounds against a [^125I]- [^3H]-, or [^35S]-labelled agonist and/or antagonist was determined. The specific list of radiolabeled ligands and experimental conditions are summarized in Supplementary Material S2.

α3β4 nAChR [2] = target: T1, α3β4 nAChR; assay: nAChR functional assay, automated patch-clamp; format: cell-based
Procedure: The following selection antibiotics were used for the cell lines: G418 (0.25 mg/ml; Sigma-Aldrich) and Zeocin^TM (0.4 mg/ml; InvivoGen, San Diego, CA, United States) for α7/Ric3 nAChR and α3β4 nAChR cells; puromycin (8 μg/ml; InvivoGen) and hygromycin B (0.4 mg/ml; Gibco) for α4β2 nAChR cells; and G418 (0.5 mg/ml), puromycin (0.25 μg/ml), and hygromycin B (0.02 mg/ml) for α6/3β2/β3 nAChR cells. […] The human nAChRs were selected due to the lack of commercially available nAChR expression systems for mouse or zebrafish.
Data were analyzed using the Patchmaster software and corrected for leak current. The data acceptance criteria were as follows: seal resistance >100 MΩ; seal resistance loss variation <50%; access resistance <20 MΩ; and minimum current amplitude elicited by maximal effect concentration acetylcholine >50 pA. Offline data analysis was performed in OpenOffice™ (v4.1.2; The Apache Software Foundation, Wakefield, MA, United States). […] Igor Pro (v6.2.2.2; WaveMetrics, Lake Oswego, OR, United States) or Prism (v8.2.1) were used for assessing the concentration–response curves.

α4β2 nAChR = α4β2 nAChR (Homo sapiens, UniProt P17787+P43681); assay: Radioligand displacement binding assay
Procedure: Assay Source Ligand Conc. Kd Non Specific Incubation Detection Bibl.
N neuronal α7 (h) SH-SY5Y cells [125I]α-bungarotoxin 0.05 nM 0.34 nM α-bungarotoxin 120 min Scintillation 347
(antagonist radioligand) (human (1 µM) 37°C counting

[3] = 0.5 mg/kg; ref Petersen et al. (1984); cited from earlier work
[4] = test system: norepinephrine release from hippocampal synaptosomes; assay: In vitro [3H]norepinephrine release from crude hippocampal synaptosomes; format: biochemical, rat
Procedure: In vitro neurotransmitter assays using crude synaptosome preparations were conducted by Gifford Biosciences Limited (Birmingham, UK) based on the previously described protocols ([Clarke and Reuben, 1996]; [Gifford et al., 2000]). In brief, male Sprague Dawley rats (200–225 g) were terminated by cervical dislocation followed by decapitation. The striatums or hippocampi were dissected and homogenized in ice-cold 0.32 M sucrose using a Dounce homogenizer. The homogenates were centrifuged at 100 x g for 5 min to pellet cell debris. The supernatants were collected and centrifuged at 17,000 x g for 10 min at 4°C to pellet crude synaptosomes. The pellets were resuspended in 5 ml Krebs buffer, pH 7.4 (in mM (pH 7.4): 120 NaCl, 3.3 KCl, 1.2 MgSO4, 1.3 CaCl2, 1.2 K2HPO4, 25 HEPES, 11 glucose, 0.01 ascorbic acid, 0.025 pargyline, and 0.1% BSA containing 2 μCi/ml [^3H]norepinephrine for hippocampal synaptosomes or 1 μCi/ml [^3H]dopamine for striatal synaptosomes and incubated for 15 min at 35°C with gentle shaking.
The [^3H]norepinephrine- or [^3H]dopamine-treated crude synaptosomes were loaded onto closed filter chambers containing Whatman® Grade GF/C Glass Microfiber filters (Sigma-Aldrich, Merck KGaA, Darmstadt, Germany) and placed in a superfusion system. Preoxygenated Krebs buffer was perfused through the chambers at a rate of 1 ml/min at 37 °C using an 8-channel peristaltic pump. To ensure an even flow over the synaptosomal bed, trapped air bubbles were removed from the filters prior to collection of the fractions. After a superfusion period of 40 min, three basal fractions (1.5 ml/fraction) were collected first, followed by three fractions (1.5 ml/fraction) containing the test compound. Two additional fractions were collected in the presence of 30 mM KCl to depolarize the synaptosomes. A 0.4-ml aliquot of each fraction was then transferred to a counting plate, and a scintillation cocktail was added to measure the radioactivity using a Wallac® TriLux 1450 MicroBeta counter (PerkinElmer Life Sciences, Zaventem, Belgium). Once all fractions were collected, the filters holding the crude synaptosome samples were removed and dried overnight at room temperature. On the following day, the scintillation cocktail was added and the filters were counted to determine residual radioactivity.
Compound-evoked release of neurotransmitters was calculated by subtracting the counts per minute (CPM) in the two basal fractions collected immediately prior to compound addition from those in the two fractions collected immediately following compound addition. The compound-evoked release was then expressed as a percentage of the basal release from that chamber. Potassium-evoked release was calculated by subtracting the CPM in the fraction immediately prior to KCl addition from the CPM in the […] immediately following potassium addition. Stimulated release was calculated as the percentage of basal release for that chamber. The increase in stimulated release above the baseline (no compound) release for that experimental run was determined, and the latter values were plotted on the graphs. Dose–response curves were determined using non-linear curve fitting in Prism (GraphPad Software, Inc, San Diego, CA, United States). All experiments were repeated at least three times.

[5] = mean ± S.D., no effect = up to 33 μM

T1 sequence (P32297 32-505): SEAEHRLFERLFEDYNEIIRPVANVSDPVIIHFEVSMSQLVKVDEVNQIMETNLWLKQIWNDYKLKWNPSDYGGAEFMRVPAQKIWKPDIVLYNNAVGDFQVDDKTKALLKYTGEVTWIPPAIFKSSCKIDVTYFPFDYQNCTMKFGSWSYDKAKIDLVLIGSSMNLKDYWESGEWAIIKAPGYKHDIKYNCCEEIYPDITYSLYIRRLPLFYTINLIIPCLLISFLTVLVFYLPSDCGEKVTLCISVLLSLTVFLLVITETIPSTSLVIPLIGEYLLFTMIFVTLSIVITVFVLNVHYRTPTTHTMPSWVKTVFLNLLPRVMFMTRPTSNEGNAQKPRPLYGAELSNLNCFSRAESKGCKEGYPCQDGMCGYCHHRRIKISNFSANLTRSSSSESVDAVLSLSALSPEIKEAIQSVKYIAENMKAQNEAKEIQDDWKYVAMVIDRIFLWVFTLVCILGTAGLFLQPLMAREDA
T1 sequence (P30926 22-498): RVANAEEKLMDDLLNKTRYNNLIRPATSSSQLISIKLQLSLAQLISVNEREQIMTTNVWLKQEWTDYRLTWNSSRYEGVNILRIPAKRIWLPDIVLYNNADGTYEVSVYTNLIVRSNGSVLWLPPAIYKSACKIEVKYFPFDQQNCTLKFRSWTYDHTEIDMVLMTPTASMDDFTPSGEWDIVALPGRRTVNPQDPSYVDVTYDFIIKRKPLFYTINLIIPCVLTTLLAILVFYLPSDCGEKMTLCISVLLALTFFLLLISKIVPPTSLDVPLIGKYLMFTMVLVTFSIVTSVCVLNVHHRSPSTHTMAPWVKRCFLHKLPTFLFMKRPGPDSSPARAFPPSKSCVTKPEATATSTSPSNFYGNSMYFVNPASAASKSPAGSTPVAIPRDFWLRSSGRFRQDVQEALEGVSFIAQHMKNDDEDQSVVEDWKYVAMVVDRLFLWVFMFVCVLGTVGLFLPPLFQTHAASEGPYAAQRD
Sequence of α4β2 nAChR (P43681 29-627 limits assumed): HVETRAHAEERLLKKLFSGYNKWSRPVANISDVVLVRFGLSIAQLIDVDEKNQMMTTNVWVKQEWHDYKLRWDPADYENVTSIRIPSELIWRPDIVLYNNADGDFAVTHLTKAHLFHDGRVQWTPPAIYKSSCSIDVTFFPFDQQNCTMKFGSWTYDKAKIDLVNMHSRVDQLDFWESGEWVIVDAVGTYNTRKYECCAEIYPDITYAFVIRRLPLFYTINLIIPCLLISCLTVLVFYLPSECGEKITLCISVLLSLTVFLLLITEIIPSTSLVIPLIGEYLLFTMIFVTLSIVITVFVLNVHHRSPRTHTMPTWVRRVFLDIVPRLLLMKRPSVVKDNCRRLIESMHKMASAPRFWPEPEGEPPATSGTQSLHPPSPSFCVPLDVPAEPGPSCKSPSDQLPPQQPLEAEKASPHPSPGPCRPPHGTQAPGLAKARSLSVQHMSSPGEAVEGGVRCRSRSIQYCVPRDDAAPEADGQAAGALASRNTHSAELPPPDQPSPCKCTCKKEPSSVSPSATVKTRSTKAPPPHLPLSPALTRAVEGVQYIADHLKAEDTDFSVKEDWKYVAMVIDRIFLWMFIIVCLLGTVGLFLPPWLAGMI
Sequence of α4β2 nAChR (P17787 26-502): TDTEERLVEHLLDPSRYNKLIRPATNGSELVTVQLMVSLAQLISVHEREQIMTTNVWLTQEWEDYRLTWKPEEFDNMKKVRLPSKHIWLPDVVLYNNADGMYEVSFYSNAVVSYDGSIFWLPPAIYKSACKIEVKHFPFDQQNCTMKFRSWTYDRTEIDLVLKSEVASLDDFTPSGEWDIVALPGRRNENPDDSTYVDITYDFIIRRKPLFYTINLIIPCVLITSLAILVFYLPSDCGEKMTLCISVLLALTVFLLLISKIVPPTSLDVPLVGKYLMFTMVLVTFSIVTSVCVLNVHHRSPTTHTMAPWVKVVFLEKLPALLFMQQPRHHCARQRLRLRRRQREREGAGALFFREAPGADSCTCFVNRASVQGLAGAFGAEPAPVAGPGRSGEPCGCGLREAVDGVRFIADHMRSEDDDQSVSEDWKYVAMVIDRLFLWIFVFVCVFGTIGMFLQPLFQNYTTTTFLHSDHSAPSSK

With `CN1C(=O)CC[C@H]1c1cccnc1` [Cotinine, (-)-cotinine] the “binding for α3β4 nAChR” value (α3β4 nAChR [1]) was “undetectable”, the “α3β4 nAChR EC50 in µM” value (α3β4 nAChR [2]; [5]) was “no detectable activities; also recorded: No effect *” and the “binding for α4β2 nAChR” value (α4β2 nAChR) was “barely detectable”.

In the case of `CN1CCC[C@H]1c1cccnc1` [Nicotine, (-)-Nicotine], the plasma concentration [3] is listed as 5 to 6 µM and the EC50 ([4]; hippocampal synaptosomes) is listed as 4.22 µM.

With `C1=CCC(c2cccnc2)NC1` (racemic) [Anatabine, (±)-Anatabine] the IC50 (α3β4 nAChR [1]) was 0.96 ± 0.2 µM, the EC50 (α3β4 nAChR [2]; [5]) was 70.6 ± 8.2 µM and the “% of the full receptor activity, α3β4 nAChR” value (α3β4 nAChR [2]; preliminary, data not shown) was ~40%. For the same compound, the “increase in norepinephrine release” value ([4]; at the higher doses) was ~20%.
